Measured values taken from patent US20260284011A1, “COMPOUNDS FOR RESTORING SUSCEPTIBILITY TO BETA-LACTAM ANTIBIOTICS” (UNIVERSITY OF NOTRE DAME DU LAC, priority 2023, published 2026).

Legend:
BlaR = BlaR (Staphylococcus aureus, UniProt P18357); assay: Live-cell fluorescent assay for BlaR inhibition (Venus reporter); type: cell-based, S. aureus NRS144pCN52RI-Venus; details: compound at 100 mg/L^−1; CBAP 10 mg·L^−1; fluorescence after 2 h
Source text: Live-Cell Fluorescent Assay in Discovery and Mechanism of Action. We conceived of fluorescent constructs in the bla operon, for the purpose of screening (FIG. 2a). We removed the gene for the β-lactamase (blaZ) and put in its place individually the genes for the Green Fluorescent Protein (GFP), Venus (a yellow-fluorescent protein) or mCherry (a red-fluorescent protein) in the template plasmid pCN52. The three plasmids were named pCN52RI, pCN52RI-Venus and pCN52RI-mCherry, respectively. The genes for the fluorescent proteins were transcribed under the promoter of the blaZ gene and were regulated by the proteins BlaR and BlaI, as is the case for the wild-type bla operon.
We transformed separately S. aureus NRS144—a laboratory strain that accepts a foreign gene and harbors neither the bla nor the mec operons—with each of these plasmids. […] When induced, the fluorescent protein is produced and is detected (akin to expression of the resistance genes blaZ or mecA in typical MSSA and MRSA). […] The transformed strains were grown in tryptic soy broth medium for overnight culture and strain maintenance and incubated in cation-adjusted Mueller-Hinton broth medium for inhibitor screening in a 96-well microplate format. The culture without CBAP addition was the negative control. In order to select a desirable reporter construct, we compared the intensity of the fluorescence produced from each construct at the wavelengths given in FIG. 2a using the Cytation-5 multi-mode microplate reader. Among the three constructs, pCN52RI-Venus produced the best fluorescence intensity and pCN52RI-mCherry was the second best (FIG. 4).
(§1) The collection of the 100 compounds from the in-silico search was screened against S. aureus NRS144pCN52RI-Venus. The screening strategy was as follows. Bacteria grown to OD600 of 0.25 were exposed concurrently to CBAP (10 mg·L^−1) and the test compound (100 mg·L^−1). Fluorescence was recorded after two hours of incubation. OD600 values were also recorded to identify compounds with inherent antibacterial activity. Compound 1 (Chart 1) emerged—82% diminished fluorescence as an indication of the extent of BlaR inhibition—as a suitable template for structure elaboration. This effort led to the synthesis of several dozen benzimidazole and imidazole compounds. The progression of the iterative design is depicted in Chart 1 for four compounds, culminating in 4. […] The X-ray structures for the complexes of compounds 2 (non-covalent) and 4 (covalent) with the BlaR sensor domain are shown respectively in FIG. 2b (2.0 Å resolution) and FIG. 2c (1.97 Å resolution). Compound 4 makes a covalent bond with the catalytic Ser389 and creates a network of hydrogen bonds with the BlaR active site (FIG. 2c).
(§2) Fluorescent assay for screening of BlaR potential inhibitors. A 3-mL portion of lysogeny broth (LB) medium was inoculated with NRS144pCN52RI Venus from frozen stocks and grown overnight at 37° C. The overnight culture was then diluted 1:150 fold with fresh LB containing […] of erythromycin and incubated at 37° C. to an OD600 of 0.3, at which point fluorescence was induced by the addition of CBAP to a final concentration of 10 μg·mL^−1. The culture was aliquoted (99 L) into 96-well plate and 1 L of inhibitor solution (1 mg·mL^−1 in DMSO) was added to each well. Negative control (DMSO without CBAP) and positive control (CBAP without inhibitor) were included. The plate was incubated at 30° C. for 2 h with intermittent shaking. Fluorescence and OD600 measurements were taken by a Cytation-5 multimode microplate reader. Percent inhibition of BlaR and bacterial growth were calculated using absorbance unit (AU) and OD600 values of each sample entered into this formula: […]

[1] = test system: S. aureus NRS144pCN52RI-Venus; assay: Bacterial growth inhibition (OD600) in the fluorescent screening assay; type: cell-based, Staphylococcus aureus; details: compound at 100 mg/L^−1; OD600 after 2 h
Procedure: as §1, §2

MSSA and MRSA strains = assay: MIC potentiation, groups of strains; type: cell-based, Staphylococcus aureus; details: all 40 tested strains
Procedure: Potentiation of Activities of/36-Lactam Antibiotics. Compound 4 was evaluated as an adjuvant for β-lactam antibiotics, per design principles.
MICs were determined by the microdilution broth method following the Clinical & Laboratory Standards Institute (CLSI) guidelines. […] Experiments were performed in triplicate in 96-well plates with 5×10^5 CFU·mL^−1 of bacteria. […] The MIC was the concentration for which bacterial growth was not observed.

additional MRSA strains = assay: Checkerboard assay; type: cell-based, Staphylococcus aureus
Procedure: (§3) Synergy with β-Lactams and Time-Kill Assays. […] In this assay, the antibiotics are compared individually and in combination. The fractional inhibitory concentration (FIC) index is calculated. Synergy is defined as an FIC value ≤0.5, indifference as FIC >0.5 to ≤4, and antagonism as FIC >4.
(§4) Checkerboard assay. […] The final inoculum in each well was 5×10^5 CFU·mL^−1, and the result was read after 24-h incubation at 37° C. The fractional inhibitory concentration (FIC) index was calculated for each combination. An FIC index of ≤0.5 is considered synergistic. The experiment was done in triplicates.

strain NRS21 = assay: Checkerboard assay; type: cell-based, Staphylococcus aureus; details: 24-h incubation
Procedure: as §3, §4

[2] = test system: active-site serine penicillin-binding proteins; assay: Inhibition of penicillin-binding proteins
HFH29568 = assay: Checkerboard assay; type: cell-based, Staphylococcus aureus
Procedure: as §3, §4

HI049 = assay: Checkerboard assay; type: cell-based, Staphylococcus aureus
Procedure: as §3, §4

Sequence of BlaR (P18357 whole entry): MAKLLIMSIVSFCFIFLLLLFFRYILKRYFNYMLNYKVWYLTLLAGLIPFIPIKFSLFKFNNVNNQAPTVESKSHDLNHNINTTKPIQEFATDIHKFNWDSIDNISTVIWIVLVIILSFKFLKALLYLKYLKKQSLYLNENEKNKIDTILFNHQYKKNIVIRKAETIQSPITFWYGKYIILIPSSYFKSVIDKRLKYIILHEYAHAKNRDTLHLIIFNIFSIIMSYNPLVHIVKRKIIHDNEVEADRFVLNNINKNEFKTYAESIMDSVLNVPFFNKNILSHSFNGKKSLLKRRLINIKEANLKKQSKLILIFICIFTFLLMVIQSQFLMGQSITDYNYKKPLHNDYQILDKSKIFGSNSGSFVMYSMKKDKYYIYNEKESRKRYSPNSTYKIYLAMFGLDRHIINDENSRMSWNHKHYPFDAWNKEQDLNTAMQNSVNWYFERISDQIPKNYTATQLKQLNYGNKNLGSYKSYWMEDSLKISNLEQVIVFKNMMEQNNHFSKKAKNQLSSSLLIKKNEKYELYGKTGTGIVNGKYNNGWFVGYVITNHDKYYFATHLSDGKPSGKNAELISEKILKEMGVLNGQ

SMILES | % Inhibition of BlaR (BlaR) | % Inhibition of bacterial growth [1] | potentiation of the activity of MEM by 4 (MSSA and MRSA strains) | FIC, 4 with OXA, MEM, FOX, or CPT (additional MRSA strains) | FIC index, 4 with FOX (strain NRS21) | FIC index, 4 with OXA (strain NRS21) | inhibitory properties against penicillin-binding proteins [2] | FIC index, 4 with MEM (HFH29568) | FIC index, 4 with MEM (HI049)
N#Cc1ccc2nc(SCB(O)O)n(Cc3ccc(C(F)(F)F)cc3C(F)(F)F)c2c1 [Compound 4, (((1-(2,4-bis(trifluoro-methyl)benzyl)-6-cyano-1H-benzo[d]imidazol-2-yl)thio)methyl)boronic acid] | 98% | 25% | lowering MICs to below resistant level | < 0.25 | 0.25 | 0.19 | modest inhibitory properties | – | –
C[C@@H](O)[C@H]1C(=O)N2C(C(=O)O)=C(S[C@@H]3CN[C@H](C(=O)N(C)C)C3)[C@H](C)[C@H]12 [MEM, meropenem] | – | – | – | – | – | – | – | 0.09 | 0.19
